Literature values in patent US8715726B2 (Eurofarma Laboratories S.A., priority 2007, dated 2014).

For `COc1cccc(C2(O)CCCCC2CN(C)C)c1` (stereo not drawn) [Tramadol, 2-((dimethylamino)methyl)-1-(m-methoxyphenyl)-cyclohexanol], the metabolism (in vivo) is given as “extensively metabolised in the liver”, the “dose excreted in the form of metabolites” value (oral administration) is given as 60% and the “dose excreted in the urine not having been metabolised” value (oral administration) is given as “Approximately 30%”.
